Measurements: a melting point compilation (Tetko et al.; mined from patent text by program, amines drawn as free bases though some values may be those of a salt)

Row | melting point | Compound
1 | 205 to 208 °C | COc1ccn(-c2nc(C)c(C(=O)NCc3ccccc3)s2)c(=O)c1
2 | 190 to 192 °C | CC(C)(C)NCC(O)c1ccc(O)c(C(O)CO)c1 (centres undefined)
3 | 154 to 160 °C | COc1ccc(Nc2nc(-c3cccc(C(=O)Nc4ccc(C(=O)OCc5ccccc5)cc4)c3)cn3ccnc23)cc1OC
4 | 148 °C | C=CCN(c1ccccc1CC(=O)O)c1c(Cl)cccc1Cl
5 | 123 to 124 °C | CCC(=O)c1ccc(Oc2ccc(-c3scc(-c4ccccc4Cl)c3CC(=O)N=C(N)N)cc2)cc1
6 | 146 to 148 °C | CC(=O)N1CCCC2=C1CCc1cc(Cl)c(Cl)cc12
7 | 194 to 195 °C | CCNC(=S)NS(=O)(=O)c1cc2c(cc1OC)OCC(NC(=O)c1cc(Cl)ccc1OC)C2 (centres undefined)
8 | 137 to 140 °C | COc1nc2cc(Cl)cc(C#CCO)c2nc1OC
9 | 253 to 255 °C | O=c1[nH]c2ccc(C(F)(F)F)cc2c(-c2cc(Cl)ccc2O)c1CCO
10 | 178 to 180 °C | CC(C)N1OCC(=Cc2cc(C(C)(C)C)c(O)c(C(C)(C)C)c2)C1=O
11 | 102 to 104 °C | CC(C)c1cc(Oc2ccc(Cl)cc2)nc(C(C)C)c1[N+](=O)[O-]
12 | 71 °C | O=C(O)CCCc1cccc(C(=O)c2ccccc2)c1
13 | 191 to 193 °C | O=C(Cc1ccc(Cl)c(Cl)c1)NCc1ccc2c(c1)CN(C1CCC(=O)NC1=O)C2=O (centres undefined)
14 | 195 to 197 °C | O=C(OCc1ccccc1)c1cc2c(=O)n(Cc3ccccc3)c(=O)[nH]c2s1
15 | 212 to 214 °C | CCCCc1nc2ccc(O)cc2c(=O)n1Cc1ccc(-c2ccccc2-c2nnn[nH]2)cc1
16 | 210 to 212 °C | CCOC(=O)c1c(CC(=O)O)n(-c2ccc(OC(C)C)cc2)c2ccc(Oc3ncccc3C(N)=O)cc12
17 | 79 to 80 °C | COC(=O)COc1ccc(SCc2cc(-c3ccc(Cl)cc3)on2)cc1C
18 | 110 to 115 °C | CCCSc1nc(-c2ccc(C#N)cc2)cn1-c1ccc(I)cc1
19 | 190 to 191 °C | COC(=O)c1ccc(-c2nc(COc3ccc(COc4nn(-c5ccccc5)cc4C=O)cc3OC)c(C)o2)cc1
20 | 148 to 149 °C | CCN(CC)C(=O)c1cc(OC)c(OC)cc1-c1c(C(=O)N(CC)CC)ccc2c1OCO2
21 | 111 to 112 °C | COCCOC(=O)c1cnn2c(-c3cccc(C(F)(F)F)c3)ccnc12
22 | 160 to 164 °C | CCOC(=O)C1=C(COCC#CC(O)c2ccccc2)NC(C)=C(C(=O)OC)C1c1cccc(Cl)c1Cl (centres undefined)
23 | > 290 °C | Cc1c(Cl)c(Cl)nc2c1NC(=O)c1cccnc1N2C1CC1
24 | 139 to 141 °C | CC(C)c1cc([N+](=O)[O-])c(O)c(C(C)C)c1NC(=O)CN1CCN(CCSc2nc3ccccc3o2)CC1

Row | melting point | Compound
25 | 172 °C | COc1nc(NC(=O)NS(=O)(=O)Nc2nc(C)cc(C)n2)nc(OC)n1
26 | 175 °C | CC(=O)c1cccc2c1[C@@H](NC(=O)c1ccc(F)cc1)[C@H](O)C(C)(C)O2 (relative stereo)
27 | 213 to 215 °C | Cc1cn(-c2cc(NC(=O)c3ccc(Cl)c(C#Cc4ccc(NC5CC5)nn4)c3)cc(C(F)(F)F)c2)cn1
28 | 195 to 200 °C | CN(C)C(=O)Cc1c[nH]c2ccc(I)cc12
29 | 120 to 121 °C | CCCCCCCCCCCc1nc2c(O)c(NC(C)=O)cc(Cl)c2cc1CCCCCCCCCC
30 | > 400 °C | O=C(O)c1ccc2c(=O)c3cc(C(=O)O)ccc3oc2c1
31 | 99 to 101 °C | COC(=O)c1cc(F)c(F)c2ccc(C)nc12
32 | 235 to 240 °C | O=C(N=CNO)c1cc2c(cn1)[nH]c1ccccc12
33 | 185 to 187 °C | CCCC1(Cl)Cc2cc(OCC(=O)O)c(Cl)c(Cl)c2C1=O (centres undefined)
34 | 139 to 140 °C | CCN1C(=O)C(C)(C)C(=O)N(C)c2cc(CN(CCn3ccc4sccc4c3=O)Cc3cccnc3C)ccc21
35 | 195 to 196 °C | CCCCc1c(Cl)nc(N)nc1-c1cc2ccccc2o1
36 | 225 to 226 °C | CNC(=O)c1cc2c(Oc3ccc(/C=C/C(=O)NCC(O)CO)cc3)cncc2s1 (centres undefined)
37 | 202 to 204 °C | O=C1CN(CC2CCN(c3ncc4ncnc(Nc5ccc(F)c(Cl)c5)c4n3)CC2)CCO1
38 | 97 °C | CCC(=O)c1cc(C(=O)C(=O)c2cccc(OC)c2)cn1CC
39 | 129 to 132 °C | CC(C)N(CCO)c1nc(Nc2cccc(NS(C)(=O)=O)c2)nc2[nH]ccc12
40 | 186 °C | COc1cc(CN(C)CCCOc2ccc(NC(=O)c3cccc4c(=O)c5cccc(OC)c5[nH]c34)cc2)cc(OC)c1OC
41 | 151 to 152 °C | CCCCOc1ccc(C(=O)NCCCCCCCNC(=O)c2ccc(OCCCC)cc2)cc1
42 | 258 to 260 °C | CCOC(=O)N1CCn2c(nc(-c3ccncc3)cc2=O)C(NC(=O)c2ccc3c(c2)CNCC3)C1 (racemic)
43 | 82 to 83 °C | CCOC(=O)C1=C(C)NC(C(OCC)OCC)=C(C(=O)OCC)C1c1ccccc1C(F)(F)F (centres undefined)
44 | 172 to 174 °C | CC(=O)Oc1ccc(Cn2ncc(-c3ccc(S(C)(=O)=O)cc3)c(-c3ccc(F)cc3)c2=O)cc1
45 | 130 to 132 °C | Clc1ccnc2cc3c(cc12)OCO3
46 | 160 to 162 °C | COc1ccnc(N2CCN(Cc3ccc(C(C)(C)NC(C)=O)cc3)CC2)n1
47 | 228 °C | Cc1cc(N)nc(CCc2nc3cc(-c4ccc(F)cc4)cnc3[nH]2)c1

The next lines start with the compound.

Row | Compound | melting point
48 | O=C1c2ccccc2COc2ccc(CCC(=O)N(O)C3CCCCC3)cc21 | 146 to 147 °C
49 | C=Cc1cc2cc(OC)ccc2n1C | 87 to 89 °C
50 | O=C(O)CC(NC(=O)OCc1ccccc1)C(=O)CNS(=O)(=O)CCc1ccccc1 (centres undefined) | 100 to 101 °C
51 | O=C1N=NC(Cc2ccc(OCCc3coc(-c4ccccc4)n3)cc2)O1 (centres undefined) | 142 to 144 °C
52 | CN(C(=O)CN1C(=O)C(NC(=O)Nc2cccc(C#N)c2)N=C(CN2CCCCC2)c2ccccc21)c1ccccc1 (centres undefined) | 145 to 150 °C
53 | NCc1ccc(C(=O)CCCN2CCC(c3ccc(Cl)cc3)CC2)cc1 | 94 to 96 °C
54 | FC(F)(F)CNC(=S)Nc1cccc(COC(=S)NCC(F)(F)F)n1 | 173 to 175 °C
55 | O=C1N(Cc2ccc3nonc3c2)c2ccccc2C12COc1cc3c(cc12)OCCO3 (centres undefined) | 164 to 166 °C
56 | O=C(NC1(C(=O)O)CCCCC1)OCc1ccccc1 | 152 to 154 °C
57 | Cc1oc(-c2ccccc2)nc1CCc1ccc(/C=C/C=C/C=O)cc1 | 107 to 108 °C
58 | Cc1cccc2c1Sc1ccccc1N2 | 115 °C
59 | COc1nnc2cc(Cl)ccc2n1 | 122 °C
60 | O=C1NCc2c(Oc3ccccc3)cccc2N1c1ccccc1 | 225 to 227 °C
61 | Cc1ccc(C(=O)NC(NC(=S)Nc2cccc([N+](=O)[O-])c2)c2ccccc2)cc1 (centres undefined) | 170 to 172 °C
62 | CN(Sc1ccccc1[N+](=O)[O-])C(=O)Nc1ccc(Cl)cc1 | 157 to 158 °C
63 | COC(=O)C(OC)(c1ccccc1)c1nc(OC)cc(OC)n1 (centres undefined) | 72 to 76 °C
64 | Cc1c(C=O)ncn1Cc1ccccc1 | 107 to 110 °C
65 | Cc1ccc(C(=O)c2ccc(O)cc2)cc1O | 174 to 175 °C
66 | O=C(O)CS(=O)(=O)Nc1ccc(F)cc1C(F)(F)F | 120 to 121 °C
67 | Cc1ncc(-c2ccc(F)cc2)n1-c1ccc(Cl)cc1 | 132 to 134 °C
68 | Nc1c(I)c(C(F)(F)F)nn1-c1c(Cl)cc(C(F)(F)F)cc1Cl | 126 °C
69 | COc1cc2c(cc1OC)[C@H]([C@H](O)c1ccccc1)OC2=O | 113 to 115 °C
70 | O=C1C(c2ccccc2)=C(c2ccccc2)C(=O)N1CCc1cccc(F)c1 | 129 to 130 °C
71 | N#Cc1c(NCCCN2CCCC2)ncc2c1-c1ccccc1C(c1ccc(Cl)c(Cl)c1)C2 (centres undefined) | 104 to 110 °C
72 | O=Cc1cc(Br)cc(Cc2cccnc2)c1 | 97 to 98 °C
73 | CCNS(=O)(=O)/C=C/c1ccc2[nH]cc(C3CCN(Cc4ccccc4)CC3)c2c1 | 178 to 180 °C

Row | Compound | melting point
74 | CC(=O)Oc1ccc2c(c1)CCCO2 | 76 to 77 °C
75 | O=[N+]([O-])c1cccnc1Nc1ccccc1F | 97 °C
76 | C#Cc1ccnc(-c2ccc(Br)cc2[N+](=O)[O-])c1 | 166 to 171 °C
77 | COc1ccc(C2(O)c3ccccc3-c3ccccc32)cc1 | 91 to 93 °C
78 | O=C1CCc2cc(C3=NNC(=O)C4CCC34)ccc2N1 (centres undefined) | 349 to 353 °C
79 | COc1ccc2sc(=NN3C(=O)CSC3=S)sc2c1 | 254 to 255 °C
80 | CCCN(CCC)C1Cc2cccc3nc(SC)n(c23)C1 (centres undefined) | 49 to 52 °C
81 | COC(=O)C1C=C2c3cccc4[nH]c(C)c(c34)CC2N(C)C1 (centres undefined) | 154 °C
82 | NC(=O)c1c(N)sc2ccccc2c1=O | 277 to 279 °C
83 | O=C(CC1CCCCC1)Nc1ccc2oc3c(c2c1)CCCCCC3 | 180 to 181 °C
84 | CC(NC(=O)Cc1cc(F)cc(F)c1)C(=O)C1(N)N=C(c2ccccc2)c2cc(Cl)ccc2N(C)C1=O (centres undefined) | 126 to 130 °C
85 | CC(=O)N1C(=O)NC(=O)CC1C (centres undefined) | 107 to 109 °C
86 | OC(CCCl)COc1cccc(C(F)(F)F)c1 (centres undefined) | 50 to 52 °C
87 | COc1ccccc1N1CCN(C[C@H]2COc3ccc4nc(C)ccc4c3O2)CC1 | 44 to 47 °C
88 | O[C@@H]1C=C[C@H](n2cnc3c(Cl)ncnc32)C1 (racemic) | 118 °C
89 | Cc1ncc(C(=O)N2CCC(=O)CC2)c(C)n1 | 116 °C
90 | OC1CSC(=S)N1c1ccccn1 (centres undefined) | 110 °C
91 | COc1ccc2c(c1OC)C1=NCCN1C1C(c3ccccc3)CCN21 (centres undefined) | 171 °C
92 | Cc1cc(-c2nc(-c3cccs3)c[nH]2)ccc1O | 167 to 172 °C
93 | O=C(O)c1cc(SCc2ccsc2)c(-c2ccccc2)c([N+](=O)[O-])c1 | 159 to 161 °C
94 | CCOc1ccc(S(=O)(=O)N2CCN(C)CC2)cc1C=O | 107 to 108 °C
95 | Cc1nnc(-c2ccc3occ(-c4ccc5c(c4)C(C)(C)CS5)c3c2)o1 | 159 to 160 °C
96 | CC(=O)N1CCC(C)(C)c2cc(/C(C)=C/c3ccc(C(=O)O)cc3)ccc21 | 200 to 202 °C
97 | COC(=O)[C@H](Cc1ccc(O)cc1)Nc1ccccc1C(=O)c1ccccc1 | 185 to 186 °C
98 | CC(C)(C#N)c1cc(C(Cl)c2cncnc2)cc(C(C)(C)C#N)c1 (centres undefined) | 118 to 121 °C
99 | CC(C)=CC(O)C(Cl)(Cl)Cl (centres undefined) | 83 °C
